Reference: patent publication US11814367B2, “Inhibitors of glycogen synthase 1 (GYS1) and methods of use thereof” (Maze Therapeutics, Inc., priority 2021, dated 2023)

Legend:
[1] = molecular target: hGYS2 enzyme (recombinant hGYS2/GN1 protein) (Homo sapiens (Human), UniProt P54840); test: GYS2 coupled enzyme assay (PK/LDH); format: biochemical; settings: geometric mean of at least 2 assay runs on separate days, read-out: Avg_IC50
Outline: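 Recombinant hGYS2/GN1 (200 nM) with 2 mM UDP-glucose, 0.2% rabbit liver glycogen, 2 mM glucose-6-phosphate; UDP coupled via PK/LDH (2 mM PEP, 0.6 mM NADH). Buffer 50 mM Tris pH 7.5, 2 mM MgCl2, 100 mM KCl, 2.5% DMSO. A340 slope over 10 min; IC50 from Hill fit of duplicates.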

[2] = tested on: hGYS1 enzyme / glycogen synthesis in HeLa cells; test: GYS1 cell based assay (glycogen synthesis, Glucose-glo); set-up: species or system human; settings: Homo sapiens, HeLa, 24 h, 24 h incubation, 20 mM glucose, geometric mean of at least 2 runs
Outline: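 HeLa cells starved 24 h in medium containing only 1× Glutamax were plated onto compound in medium with 20 mM glucose (1% DMSO final) for 24 h, 37 °C, 5% CO2. Acid lysates were Tris-quenched, glucoamylase-digested (pH 5.3, 1 h, 37 °C) and read by Glucose-glo luminescence. IC50 came from Hill fits, as geometric mean of ≥2 runs.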

[3] = molecular target: hGYS1 enzyme (recombinant hGYS1/GN1 protein) (Homo sapiens (Human), UniProt P13807); test: GYS1 coupled enzyme assay (PK/LDH); format: biochemical; settings: hGYS1/GN1 50 nM, UDP-Glucose 0.8 mM, G6P 1 mM; geometric mean of at least 2 runs
hGYS1 enzyme (recombinant hGYS1/GN1 protein), sequence (P13807 whole entry): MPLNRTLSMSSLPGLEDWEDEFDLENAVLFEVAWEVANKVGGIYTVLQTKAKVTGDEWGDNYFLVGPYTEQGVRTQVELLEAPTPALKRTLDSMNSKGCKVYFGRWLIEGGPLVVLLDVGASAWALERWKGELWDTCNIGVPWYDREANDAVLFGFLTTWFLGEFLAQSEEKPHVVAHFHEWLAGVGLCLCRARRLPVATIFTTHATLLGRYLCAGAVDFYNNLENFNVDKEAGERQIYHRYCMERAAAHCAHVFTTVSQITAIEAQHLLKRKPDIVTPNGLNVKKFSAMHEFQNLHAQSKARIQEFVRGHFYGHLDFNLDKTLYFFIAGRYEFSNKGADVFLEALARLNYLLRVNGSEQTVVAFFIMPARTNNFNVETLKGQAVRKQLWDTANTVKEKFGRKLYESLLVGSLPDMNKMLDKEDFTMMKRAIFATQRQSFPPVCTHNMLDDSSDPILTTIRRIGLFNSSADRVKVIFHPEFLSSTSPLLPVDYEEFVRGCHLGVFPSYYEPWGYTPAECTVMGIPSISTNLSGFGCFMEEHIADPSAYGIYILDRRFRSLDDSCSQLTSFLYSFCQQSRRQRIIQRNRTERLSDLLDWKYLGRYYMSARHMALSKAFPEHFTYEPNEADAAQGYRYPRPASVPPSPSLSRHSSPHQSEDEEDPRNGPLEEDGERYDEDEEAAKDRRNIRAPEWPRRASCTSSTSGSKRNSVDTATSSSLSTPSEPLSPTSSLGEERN
hGYS1 enzyme (recombinant hGYS1/GN1 protein), sequence (P46976 whole entry partner): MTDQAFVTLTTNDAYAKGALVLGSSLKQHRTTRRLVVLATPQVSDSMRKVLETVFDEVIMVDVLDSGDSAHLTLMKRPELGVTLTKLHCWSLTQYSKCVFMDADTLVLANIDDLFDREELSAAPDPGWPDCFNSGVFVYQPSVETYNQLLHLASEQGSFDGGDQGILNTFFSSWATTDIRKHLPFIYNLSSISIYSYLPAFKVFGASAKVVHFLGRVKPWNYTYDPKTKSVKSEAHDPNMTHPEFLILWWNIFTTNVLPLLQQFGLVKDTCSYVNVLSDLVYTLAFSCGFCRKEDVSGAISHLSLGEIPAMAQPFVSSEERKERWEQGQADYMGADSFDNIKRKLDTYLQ

hGYS2 enzyme (recombinant hGYS2/GN1 protein), sequence (P54840 whole entry): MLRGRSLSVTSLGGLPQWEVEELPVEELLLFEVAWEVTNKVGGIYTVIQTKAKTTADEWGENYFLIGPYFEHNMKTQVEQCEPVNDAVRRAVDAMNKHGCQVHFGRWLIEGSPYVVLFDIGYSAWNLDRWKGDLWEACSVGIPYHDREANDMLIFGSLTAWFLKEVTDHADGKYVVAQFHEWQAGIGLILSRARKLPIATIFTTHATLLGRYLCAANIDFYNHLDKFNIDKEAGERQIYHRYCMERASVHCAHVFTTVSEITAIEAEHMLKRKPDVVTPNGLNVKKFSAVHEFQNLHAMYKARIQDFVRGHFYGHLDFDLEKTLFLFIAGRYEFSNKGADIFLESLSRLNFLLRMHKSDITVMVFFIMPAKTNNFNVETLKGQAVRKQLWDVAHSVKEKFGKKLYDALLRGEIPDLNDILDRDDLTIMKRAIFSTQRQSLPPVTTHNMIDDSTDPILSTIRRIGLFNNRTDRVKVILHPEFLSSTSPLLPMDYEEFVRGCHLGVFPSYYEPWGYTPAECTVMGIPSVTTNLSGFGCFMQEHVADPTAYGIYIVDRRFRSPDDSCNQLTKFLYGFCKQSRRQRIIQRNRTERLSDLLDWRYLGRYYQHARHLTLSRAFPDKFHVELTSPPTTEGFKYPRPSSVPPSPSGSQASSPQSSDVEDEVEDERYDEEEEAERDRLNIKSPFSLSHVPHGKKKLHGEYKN
hGYS2 enzyme (recombinant hGYS2/GN1 protein), sequence (P46976 whole entry partner): as the sequence (P46976 whole entry partner) above

Row | IC50 [1] | IC50 [2] | IC50 [3] | SMILES
1 | > 100 µM | > 30 µM | 0.537 µM | CC(C)c1ccc([C@@H](NC(=O)[C@@H]2C[C@@H](F)CN2C(=O)Cc2[nH]nnc2N2CCNCC2)c2ccccc2)cc1F [Compound 369, (2S,4R)-4-fluoro-N-[(S)-[3-fluoro-4-(propan-2-yl)phenyl](phenyl)methyl]-1-{2-[4-(piperazin-1-yl)-1H-1,2,3-triazol-5-yl]acetyl}pyrrolidine-2-carboxamide]
2 | > 100 µM | 3.88 µM | 0.343 µM | CC(C)c1ccc([C@@H](NC(=O)[C@@H]2C[C@@H](F)CN2C(=O)Cc2[nH]nnc2N2CCOCC2)c2ccccc2)cc1F [Compound 371, (2S,4R)-4-fluoro-N-[(S)-[3-fluoro-4-(propan-2-yl)phenyl](phenyl)methyl]-1-{2-[4-(morpholin-4-yl)-1H-1,2,3-triazol-5-yl]acetyl}pyrrolidine-2-carboxamide]
3 | > 100 µM | 1.1 µM | 0.036 µM | CC(C)c1ccc([C@@H](NC(=O)[C@@H]2C[C@@H](F)CN2C(=O)Cn2cc(C(F)(F)F)nn2)c2ccccc2)cc1F [Compound 372, (2S,4R)-4-fluoro-N-[(S)-[3-fluoro-4-(propan-2-yl)phenyl](phenyl)methyl]-1-{2-[4-(trifluoromethyl)-1H-1,2,3-triazol-1-yl]acetyl}pyrrolidine-2-carboxamide]
4 | > 100 µM | 0.21 µM | 0.014 µM | Cc1cn(CC(=O)N2C[C@H](F)C[C@H]2C(=O)N[C@@H](c2ccccc2)c2ccc(C(C)C)c(F)c2)nn1 [Compound 373, (2S,4R)-4-fluoro-N-[(S)-[3-fluoro-4-(propan-2-yl)phenyl](phenyl)methyl]-1-[2-(4-methyl-1H-1,2,3-triazol-1-yl)acetyl]pyrrolidine-2-carboxamide]
5 | > 100 µM | 0.36 µM | 0.022 µM | Cc1cnnn1CC(=O)N1C[C@H](F)C[C@H]1C(=O)N[C@@H](c1ccccc1)c1ccc(C(C)C)c(F)c1 [Compound 374, (2S,4R)-4-fluoro-N-[(S)-[3-fluoro-4-(propan-2-yl)phenyl](phenyl)methyl]-1-[2-(5-methyl-1H-1,2,3-triazol-1-yl)acetyl]pyrrolidine-2-carboxamide]
6 | > 77.4 µM | 0.57 µM | 0.006 µM | CC(C)c1ccc([C@@H](NC(=O)[C@@H]2C[C@@H](F)CN2C(=O)Cn2cc(N3CCNCC3)nn2)c2ccccc2)cc1F [Compound 375, (2S,4R)-4-fluoro-N-[(S)-[3-fluoro-4-(propan-2-yl)phenyl](phenyl)methyl]-1-{2-[4-(piperazin-1-yl)-1H-1,2,3-triazol-1-yl]acetyl}pyrrolidine-2-carboxamide]
7 | > 100 µM | 0.14 µM | 0.012 µM | CC(C)c1ccc([C@@H](NC(=O)[C@@H]2C[C@@H](F)CN2C(=O)Cn2cc(N(C)C)nn2)c2ccccc2)cc1F [Compound 377, (2S,4R)-1-{2-[4-(dimethylamino)-1H-1,2,3-triazol-1-yl]acetyl}-4-fluoro-N-[(S)-[3-fluoro-4-(propan-2-yl)phenyl](phenyl)methyl] pyrrolidine-2-carboxamide]
8 | > 100 µM | 0.17 µM | 0.006 µM | CC(C)c1ccc([C@@H](NC(=O)[C@@H]2C[C@@H](F)CN2C(=O)Cn2ncc(N(C)C)n2)c2ccccc2)cc1F [Compound 378, (2S,4R)-1-{2-[4-(dimethylamino)-2H-1,2,3-triazol-2-yl]acetyl}-4-fluoro-N-[(S)-[3-fluoro-4-(propan-2-yl)phenyl](phenyl)methyl] pyrrolidine-2-carboxamide]
9 | > 100 µM | 0.19 µM | 0.008 µM | CC(C)c1ccc([C@@H](NC(=O)[C@@H]2C[C@@H](F)CN2C(=O)Cc2cccn3c(=O)[nH]nc23)c2ccccc2)cc1F [Compound 379, (2S,4R)-4-fluoro-N-[(S)-[3-fluoro-4-(propan-2-yl)phenyl](phenyl)methyl]-1-(2-{3-oxo-2H,3H-[1,2,4]triazolo[4,3-a]pyridin-8-yl}acetyl)pyrrolidine-2-carboxamide]
10 | > 100 µM | 0.45 µM | 0.047 µM | CC(C)c1ccc([C@@H](NC(=O)[C@@H]2C[C@@H](F)CN2C(=O)Cn2ccnc2)c2ccccc2)cc1F [Compound 380, (2S,4R)-4-fluoro-N-[(S)-[3-fluoro-4-(propan-2-yl)phenyl](phenyl)methyl]-1-[2-(1H-imidazol-1-yl)acetyl]pyrrolidine-2-carboxamide]
11 | > 100 µM | 0.44 µM | 0.058 µM | CC(C)c1ccc([C@@H](NC(=O)[C@@H]2C[C@@H](F)CN2C(=O)[C@@H]2CNC(=O)O2)c2ccccc2)cc1F [Compound 381, (2S,4R)-4-fluoro-N-[(S)-[3-fluoro-4-(propan-2-yl)phenyl](phenyl)methyl]-1-[(5S)-2-oxo-1,3-oxazolidine-5-carbonyl]pyrrolidine-2-carboxamide]
12 | > 100 µM | 0.52 µM | 0.034 µM | CC(C)c1ccc([C@@H](NC(=O)[C@@H]2C[C@@H](F)CN2C(=O)[C@H]2CNC(=O)O2)c2ccccc2)cc1F [Compound 382, (2S,4R)-4-fluoro-N-[(S)-[3-fluoro-4-(propan-2-yl)phenyl](phenyl)methyl]-1-[(5R)-2-oxo-1,3-oxazolidine-5-carbonyl]pyrrolidine-2-carboxamide]
13 | > 100 µM | 0.41 µM | 0.027 µM | CC(C)c1ccc([C@@H](NC(=O)[C@@H]2C[C@@H](F)CN2C(=O)Cc2nnc(C(F)F)o2)c2ccccc2)cc1F [Compound 383, (2S,4R)-1-{2-[5-(difluoromethyl)-1,3,4-oxadiazol-2-yl]acetyl}-4-fluoro-N-[(S)-[3-fluoro-4-(propan-2-yl)phenyl](phenyl)methyl] pyrrolidine-2-carboxamide]
14 | > 100 µM | 0.7 µM | 0.033 µM | CC(C)c1ccc([C@@H](NC(=O)[C@@H]2C[C@@H](F)CN2C(=O)Cn2cnnc2)c2ccccc2)cc1F [Compound 384, (2S,4R)-4-fluoro-N-[(S)-[3-fluoro-4-(propan-2-yl)phenyl](phenyl)methyl]-1-[2-(4H-1,2,4-triazol-4-yl)acetyl]pyrrolidine-2-carboxamide]
15 | > 100 µM | 0.39 µM | 0.017 µM | CC(C)c1ccc([C@@H](NC(=O)[C@@H]2C[C@@H](F)CN2C(=O)Cc2cnn[nH]2)c2ccccc2)nc1F [Compound 385, (2S,4R)-1-(2-(1H-1,2,3-triazol-5-yl)acetyl)-4-fluoro-N—((S)-(6-fluoro-5-isopropylpyridin-2-yl)(phenyl)methyl)pyrrolidine-2-carboxamide]
16 | 36.2 µM | 0.03 µM | 0.005 µM | Cc1ccc2c(CC(=O)N3C[C@H](F)C[C@H]3C(=O)N[C@@H](c3ccccc3)c3ccc(C(C)C)c(F)n3)cccc2n1 [Compound 387, (2S,4R)-4-fluoro-N-[(S)-[6-fluoro-5-(propan-2-yl)pyridin-2-yl](phenyl)methyl]-1-[2-(2-methylquinolin-5-yl)acetyl]pyrrolidine-2-carboxamide]
17 | > 90.3 µM | 0.05 µM | 0.004 µM | CC(C)c1ccc([C@@H](NC(=O)[C@@H]2C[C@@H](F)CN2C(=O)Cn2cnc3ccccc32)c2ccccc2)nc1F [Compound 389, (2S,4R)-1-[2-(1H-1,3-benzodiazol-1-yl)acetyl]-4-fluoro-N-[(S)-[6-fluoro-5-(propan-2-yl)pyridin-2-yl](phenyl)methyl] pyrrolidine-2-carboxamide]
18 | > 100 µM | 1.03 µM | 0.027 µM | CC(C)c1ccc([C@@H](NC(=O)[C@@H]2C[C@@H](F)CN2C(=O)Cn2cnnc2)c2ccccc2)nc1F [Compound 390, (2S,4R)-4-fluoro-N-[(S)-[6-fluoro-5-(propan-2-yl)pyridin-2-yl](phenyl)methyl]-1-[2-(4H-1,2,4-triazol-4-yl)acetyl] pyrrolidine-2-carboxamide]
19 | 89.3 µM | 0.15 µM | 0.006 µM | CC(C)c1ccc([C@@H](NC(=O)[C@@H]2C[C@@H](F)CN2C(=O)Cc2cccn3c(=O)[nH]nc23)c2ccccc2)nc1F [Compound 391, (2S,4R)-4-fluoro-N-[(S)-[6-fluoro-5-(propan-2-yl)pyridin-2-yl](phenyl)methyl]-1-(2-{3-oxo-2H,3H-[1,2,4]triazolo[4,3-a]pyridin-8-yl}acetyl) pyrrolidine-2-carboxamide]
20 | > 100 µM | 0.1 µM | 0.005 µM | CC(C)c1ccc([C@@H](NC(=O)[C@@H]2C[C@@H](F)CN2C(=O)Cn2ncc(N(C)C)n2)c2ccccc2)nc1F [Compound 392, (2S,4R)-1-{2-[4-(dimethylamino)-2H-1,2,3-triazol-2-yl]acetyl}-4-fluoro-N-[(S)-[6-fluoro-5-(propan-2-yl)pyridin-2-yl](phenyl)methyl] pyrrolidine-2-carboxamide]
21 | > 100 µM | 0.12 µM | 0.008 µM | CC(C)c1ccc([C@@H](NC(=O)[C@@H]2C[C@@H](F)CN2C(=O)Cn2cc(N(C)C)nn2)c2ccccc2)nc1F [Compound 393, (2S,4R)-1-{2-[4-(dimethylamino)-1H-1,2,3-triazol-1-yl]acetyl}-4-fluoro-N-[(S)-[6-fluoro-5-(propan-2-yl)pyridin-2-yl](phenyl)methyl] pyrrolidine-2-carboxamide]
